In patent US8735431B2, “Active compound combinations having insecticidal properties” (priority 2003, dated 2014):

Tests used:
Assay type in all cases: in vivo
[1] = tested on: Heliothis armigera; assay: Heliothis armigera test (soybean shoots dipped)
Protocol: (§1) To produce a suitable preparation of active compound, 1 part by weight of active compound is mixed with the stated amounts of solvent and emulsifier, and the concentrate is diluted with emulsifier-containing water to the desired concentration.
Soybean shoots (Glycine max) are treated by being dipped into the preparation of active compound of the desired concentration and are populated with caterpillars of the cotton bollworm (Heliothis armigera) while the leaves are still moist.
(§2) After the desired period of time, the kill in % is determined. 100% means that all caterpillars have been killed; 0% means that none of the caterpillars have been killed. The determined kill ratios are entered into Colby's formula (see page 39).

[2] = tested on: Plutella xylostella, normally sensitive strain; assay: Plutella xylostella test (normally sensitive strain)
Protocol: as §1
Cabbage leaves (Brassica oleracea) are treated by being dipped into the preparation of active compound of the desired concentration and are populated with caterpillars of the diamondback moth (Plutella xylostella, normally sensitive strain) while the leaves are still moist.
as §2

[3] = tested on: Aphis gossypii; assay: Aphis gossypii test (cotton leaves dipped); conditions: 4 ppm
Protocol: as §1
Cotton leaves (Gossypium hirsutum) which are heavily infested by the cotton aphid (Aphis gossypii) are treated by being dipped into the preparation of active compound of the desired concentration. After the desired period of time, the kill in % is determined. 100% means that all aphids have been killed; 0% means that none of the aphids have been killed. The determined kill ratios are entered into Colby's formula (see page 39).

[4] = tested on: Plutella xylostella, resistant strain; assay: Plutella xylostella test (resistant strain)
Protocol: as §1
Cabbage leaves (Brassica oleracea) are treated by being dipped into the preparation of active compound of the desired concentration and are populated with caterpillars of the diamondback moth (Plutella xylostella, resistant strain) while the leaves are still moist.
as §2

[5] = tested on: Myzus persicae; assay: Myzus persicae test (cabbage leaves dipped); conditions: 20 ppm
Protocol: as §1
Cabbage leaves (Brassica oleracea) which are heavily infested by the green peach aphid (Myzus persicae) are treated by being dipped into the preparation of active compound of the desired concentration.
After the desired period of time, the kill in % is determined. 100% means that all aphids have been killed; 0% means that none of the aphids have been killed. The determined kill ratios are entered into Colby's formula (see page 39).

[6] = tested on: Phaedon cochleariae larvae; assay: Phaedon cochleariae larvae test (cabbage leaves dipped)
Protocol: as §1
Cabbage leaves (Brassica oleracea) are treated by being dipped into the preparation of active compound of the desired concentration and are populated with larvae of the mustard beetle (Phaedon cochleariae) while the leaves are still moist.
After the desired period of time, the kill in % is determined. 100% means that all beetle larvae have been killed; 0% means that none of the beetle larvae have been killed. The determined kill ratios are entered into Colby's formula (see page 39).

[7] = tested on: Spodoptera exigua; assay: Spodoptera exigua test (cabbage leaves dipped)
Protocol: as §1
Cabbage leaves (Brassica oleracea) are treated by being dipped into the preparation of active compound of the desired concentration and are populated with caterpillars of the beet army worm (Spodoptera exigua) while the leaves are still moist.
as §2

Molecule: O=C(NC(=O)c1ccccc1Cl)Nc1ccc(OC(F)(F)F)cc1 [(2-5) triflumuron, triflumuron, reference compound]
- Kill rate in % after 6d found ([1]; 0.8 ppm): 0%
- Kill rate in % after 4d found ([2]; 20 ppm): 60%

Molecule: COc1cccc(C(=O)NN(C(=O)c2cc(C)cc(C)c2)C(C)(C)C)c1C [(2-10) methoxyfenozide, methoxyfenozide, reference compound]
- Kill rate in % after 3d found ([1]; 4 ppm): 0%

Molecule: N#Cc1nn(-c2c(Cl)cc(C(F)(F)F)cc2Cl)c(N)c1[S+]([O-])C(F)(F)F (stereo not drawn) [(2-16) fipronil, fipronil, reference compound]
- Kill rate in % after 6d found [3]: 0%
- Kill rate in % after 6d found ([2]; 0.0064 ppm): 15%
- Kill rate in % after 4d found ([4]; 0.0064 ppm): 0%

Molecule: CC[S+]([O-])c1c(C#N)nn(-c2c(Cl)cc(C(F)(F)F)cc2Cl)c1N (stereo not drawn) [(2-17) ethiprole, ethiprole, reference compound]
- Kill rate in % after 1d found [5]: 50%

Molecule: COC(=O)N(C(=O)N1COC2(C(=O)OC)Cc3cc(Cl)ccc3C2=N1)c1ccc(OC(F)(F)F)cc1 (stereo not drawn) [(2-21) indoxacarb, indoxacarb, reference compound]
- Kill rate in % after 6d found ([6]; 0.032 ppm): 10%
- Kill rate in % after 6d found ([7]; 0.16 ppm): 70%

Molecule: O=C(NC(=O)c1c(F)cccc1F)Nc1ccc(Oc2ccc(C(F)(F)F)cc2Cl)cc1F [(2-22) flufenoxuron, flufenoxuron, reference compound]
- Kill rate in % after 6d found ([7]; 0.8 ppm): 10%

Molecule: Cc1cc(Cl)cc(C(=O)NC(C)C)c1NC(=O)c1cc(C(F)(F)F)nn1-c1ncccc1Cl [Example I-1-9]
- Kill rate in % after 6d found ([1]; 0.0064 ppm): 20%
- Kill rate in % after 3d found ([1]; 0.032 ppm): 45%
- Kill rate in % after 6d found ([1]; 0.032 ppm): 0%
- Kill rate in % after 6d found ([6]; 0.0064 ppm): 0%
- Kill rate in % after 6d found [3]: 10%
- Kill rate in % after 6d found ([2]; 0.00128 ppm): 0%
- Kill rate in % after 4d found ([2]; 0.16 ppm): 0%
- Kill rate in % after 4d found ([4]; 0.00128 ppm): 0%
- Kill rate in % after 6d found ([4]; 0.032 ppm): 10%
- Kill rate in % after 6d found ([7]; 0.0064 ppm): 15%
- Kill rate in % after 6d found ([7]; 0.032 ppm): 10%
- Kill rate in % after 1d found [5]: 0%

Molecule: emamectin [(2-9) emamectin, reference compound]
- Kill rate in % after 6d found ([1]; 0.00128 ppm): 0%
- Kill rate in % after 6d found ([4]; 0.00128 ppm): 40%
